According to patent US9868722B2, “Monocyclic pyrimidine/pyridine compounds as inhibitors of P97 complex” (Cleave Biosciences, Inc., priority 2013, dated 2018):
pIC50: −log10 of the molar value. Like-named read-outs stand apart in the source and are kept apart here.

Columns and labels:
[1] = target: p97 (Homo sapiens, UniProt P55072); test: P97 ATPase biochemical assay (ADP Glo)
Experimental: The ATPase assay is performed according the following protocol: Purified enzyme (20 nM p97), substrate (20 μM ATP) and a dose titration of compounds are mixed in buffer (50 mM TRIS pH 7.5, 20 mM MgCl2, 0.02% TX-100, 1 mM DTT, 0.2% (v/v) glycerol) and incubated at 37° C. for 15 minutes. The reaction is terminated and the level of product generated is measured using the ADP Glo Assay Kit (Promega, Madison Wis.). Plotting product generated versus compound concentration and using a four-parameter fit model generates an IC50 value for each compounds.
The p97 assay is an initial screening assay used to determine inhibitory activity of the monocyclic pyrimidine compounds of the invention against the p97 complex. As discussed above, inhibition of activity of the p97 proteosome complex can enable apoptosis and cause elimination of neoplastic cells (cancer cells). The method follows that of Christianson in Nat. Cell Biol., (2011) 14:93.
Assay Buffer is a mixture of 50 mM TRIS pH 7.5, 20 mM MgCl2, 0.02% TX-100, 1 mM DTT and 0.2% (v/v) Glycerol. The well plate is Platetype: Corning 3674, 384w plate. The identification kit is an ADP glo kit (Promega): stop buffer, detection reagent.
Serial dilute compound in DMSO in a 1:3.33-fold 10 point serial dilution.
0.5 μL compound serial diluted in DMSO (Final Conc. 10%)
2 μL ATP (Final Conc.=20 uM, diluted in assay buffer)
2.5 μL p97 (Final Conc.=20 nM, diluted in assay buffer)
Incubate at 37 degC for 15 min.
Add 5 μL of stop buffer, incubate at RT for 40 min.
Add 10 μL of detection reagent, incubate at RT for 30 min.
Read luminescence on Envision plate reader. • Upon obtaining the data from the luminescence reading, the data may be analyzed as follows:
Normalize luminescence data using no enzyme (full inhibition) and no compound (no inhibition) controls. Plot normalized luminescence data against log-transformed concentration values and fit to a sigmoidal curve to determine IC50 values (done in Collaborative Drug Discovery software).
The results are reported on the following Table for Examples A-EE and the E1-E4 compounds as 50 percent Inhibitory concentration at candidate doses of less than 30 nM, less than 100 nM, less than 300 nM and less than 1000 nM for the p97 inhibition assay.

[2] = tested on: A549 cells; test: Cultured cancer cell viability assay (cell titer glo, A549 CTG); type: cell-based; conditions: Homo sapiens
Excerpt: Anti-tumor effects are monitored in cultured cancer cells after several days of compound treatment. The cell titer glo assay (Promega) measures the amount of ATP present as a proxy for cellular viability. Cellular counting is done using high-content microscopy followed by image analysis. A hanging drop 3D-culture system (3D Biomatrix) is used followed by cell titer glo to measure growth in a tumor-like environment.
The cellular assay provides information about the anti-neoplastic activity of the compounds of the invention. The compounds are tested against cultured cancer cells to determine whether or not the compounds of the invention are capable of intersecting with cancer cells to minimize or eliminate such cells. The assay involves establishing colonies of such cells and then treating them with the test compound under specified conditions and analysis regime to determine results.
(§1) Plate 25 μL of A549 cells in every well of 384-well plate using multidrop.
One (1) white plate for viability at 500 cells/well.
Serial dilute compounds with a 10 point 2-fold serial dilution in DMSO to make 250× stock compound solution
Dilute compounds 1:125 in cell culture media to make a 2× solution Add 25 μl of dilution compounds to cell plates in well duplicates
Put cells back in incubator (6 hr incubation for black plates, 72 hr incubation for white plates).
Thaw an aliquot of frozen cell titer glo (Promega G7572) at room temperature.
Add 45 mL of NaCl/PBS solution to 5 ml of cell titer glo (10×).
Remove white plates from incubator, leave at room temp for 30 minutes.
Add 25 μl of diluted cell titer glo to each well.
Shake plate for >1 minute.
Incubate plate for >5 minutes to stabilize luminescence. • Luminescence is stable for up to 3 hours.
Read luminescence on plate reader
The results are reported on the following Table I for Examples A-EE and the E1-E4 compounds as 50 percent Inhibitory concentration at candidate doses of less than 1 μM, less than 3 μM and less than 10 μM for both of the K48 antibody and the p53 (CTG) antibody assays

[3] = tested on: K48 poly-Ubiquitin accumulation in A549 cells; test: A549 K48 poly-ubiquitin accumulation immunofluorescence assay; type: cell-based; conditions: Homo sapiens
Experimental: Image-analysis is used to generate quantitative data from these assays that can be fit to a four-parameter sigmoid curve to derive IC50 values. Substrates of the ubiquitin-proteasome system, such as p53, are monitored after tumor cell lines are incubated with compounds for several hours. Accumulation of these proteins indicates an inhibition of proteasome-mediated degradation. Accumulation of lysine-48 chain linkage of poly-ubiquitin is also monitored by immunofluorescence as an indicator of ubiquitin-proteasome system inhibition. Both LC3 and SQSTM1 are mediators of autophagy. The localization and amounts of these proteins are monitored by immunofluorescence and report on the activity and inhibition of autophagy in response to p97 inhibition.
as §1
Two (2) black plates for IF at 2500 cells/well
Serial dilute compounds with a 10 point 2-fold serial dilution in DMSO to make 250× stock compound solution Dilute compounds 1:125 in cell culture media to make a 2× solution Add 25 μl of dilution compounds to cell plates in well duplicates Put cells back in incubator (6 hr incubation for black plates, 72 hr incubation for white plates).
Incubate cells in black plates with compound at 37 degC for 6 hrs. add 15 μL of 16% Paraformaldehyde (PFA) directly into media of each well, incubate at room temp for 5 min, flick plate and wash in 50 μL of PBS block in 50 μL of Blocking Buffer for 30 minutes (can go up to several hours) Blocking buffer: 1×PBS, 1% BSA, 0.3% Triton-X100, Hoechst (1:10,000) incubate in 25 μL of primary antibody in blocking buffer at 4 degC over night […]
Secondary Antibodies: • AlexaFluor488 Goat anti-Rabbit 1:2,000 (Life Tech A11008) • AlexaFluor555 Goat anti-Mouse 1:2,000 (Life Tech A21422) incubate in 25 μl of secondary antibody (1:2,000) in blocking buffer for 1-2 hrs at room temp (alexafluor488-anti-Rabbit/alexafluor555-anti-Mouse) Image plates in high content microscope with 405 nm, 488 nm and 555 nm filters Nuclear counts and cellular intensities of each markers are measured using Hoechst as a nuclear marker with an automated image analysis protocol using Matlab software (Math Works) The results are reported on the following Table I for Examples A-EE and the E1-E4 compounds as 50 percent Inhibitory concentration at candidate doses of less than 1 μM, less than 3 μM and less than 10 μM for both of the K48 antibody and the p53 (CTG) antibody assays

[4] = 20 nM p97, 20 uM ATP, 37 degC 15 min
[5] = A549 cells, 72 hr incubation, cell titer glo, read-out: A549 CTG IC50
[6] = A549 cells, 6 hr incubation, K48-Ub antibody, read-out: A549 K48 IC50

Sequence of p97 (P55072 whole entry): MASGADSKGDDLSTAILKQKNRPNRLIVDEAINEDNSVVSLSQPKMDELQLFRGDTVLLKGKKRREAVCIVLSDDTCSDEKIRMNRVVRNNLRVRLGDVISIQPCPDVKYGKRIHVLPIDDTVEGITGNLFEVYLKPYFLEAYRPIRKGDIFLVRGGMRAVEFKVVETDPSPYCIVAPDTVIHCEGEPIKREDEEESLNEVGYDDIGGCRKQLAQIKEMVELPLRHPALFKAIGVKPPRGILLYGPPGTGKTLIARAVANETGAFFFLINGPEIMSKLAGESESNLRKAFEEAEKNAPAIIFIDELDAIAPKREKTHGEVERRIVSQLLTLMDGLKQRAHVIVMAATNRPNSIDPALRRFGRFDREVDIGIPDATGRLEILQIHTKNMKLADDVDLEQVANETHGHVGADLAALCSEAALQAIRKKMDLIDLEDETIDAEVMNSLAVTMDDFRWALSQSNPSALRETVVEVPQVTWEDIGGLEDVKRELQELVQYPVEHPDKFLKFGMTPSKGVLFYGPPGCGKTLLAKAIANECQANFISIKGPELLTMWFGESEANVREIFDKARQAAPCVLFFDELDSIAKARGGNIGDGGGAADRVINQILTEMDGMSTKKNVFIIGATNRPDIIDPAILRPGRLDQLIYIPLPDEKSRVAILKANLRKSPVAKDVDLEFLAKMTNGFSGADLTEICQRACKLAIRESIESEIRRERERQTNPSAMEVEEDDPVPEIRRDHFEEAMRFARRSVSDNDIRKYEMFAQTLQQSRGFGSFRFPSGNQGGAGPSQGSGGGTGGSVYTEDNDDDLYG

Structure (SMILES): Cc1nc(-n2ncc3c(C(N)=O)cccc32)nc(NCc2ccccc2)c1C(C)C [Example 11, 1-(4-(benzylamino)-5-isopropyl-6-methylpyrimidin-2-yl)-1H-indazole-4-carboxamide]
- pIC50 [1, 4]: > 6.52
- pIC50 [2, 5]: > 5.52
- pIC50 [3, 6]: > 5.52

Structure (SMILES): Cc1cc2c(C(N)=O)cccc2n1-c1ncc(C(C)C)c(NCc2ccccc2)n1 [Example 12, 1-(4-(benzylamino)-5-(propan-2-yl)pyrimidin-2-yl)-2-methyl-1H-indole-4-carboxamide]
- pIC50 [1, 4]: > 7.52
- pIC50 ([1]; Table II, preliminary assays): 8.05
- pIC50 ([2]; A549, Table II, preliminary assays, read-out: Cell Titre Glow Assay IC50): 6.14
- pIC50 [2, 5]: > 6.00
- pIC50 ([3]; A549, Table II, preliminary assays, read-out: K48 poly-Ubiquitin Accumulation): 6.19
- pIC50 [3, 6]: > 5.52

Structure (SMILES): Cc1cc2c(C(N)=O)cccc2n1-c1ncc(N(C)C)c(NCc2ccccc2)n1 [Example 13, 1-(4-(benzylamino)-5-(dimethylamino)pyrimidin-2-yl)-2-methyl-1H-indole-4-carboxamide]
- pIC50 [1, 4]: > 7.52
- pIC50 [2, 5]: > 5.52
- pIC50 [3, 6]: > 6.00

Structure (SMILES): Cc1nc(-n2c(C)cc3c(C(N)=O)cccc32)nc(NCc2ccccc2)c1N(C)C [Example 15, 1-[4-(benzylamino)-5-(dimethylamino)-6-methylpyrimidin-2-yl]-2-methyl-1H-indole-4-carboxamide]
- pIC50 [1, 4]: > 7.52
- pIC50 [2, 5]: > 5.52
- pIC50 [3, 6]: > 5.52

Structure (SMILES): COCc1cnc(-n2c(C)cc3c(C(N)=O)cccc32)nc1NCc1ccccc1 [Example 18, 1-[4-(benzylamino)-5-(methoxymethyl)pyrimidin-2-yl]-2-methyl-1H-indole-4-carboxamide]
- pIC50 [1, 4]: > 6.52
- pIC50 [2, 5]: > 5.00
- pIC50 [3, 6]: > 5.52

Structure (SMILES): Cc1cc2c(C(N)=O)cccc2n1-c1ncc(S(C)(=O)=O)c(NCc2ccccc2)n1 [Example 19, 1-[4-(benzylamino)-5-(methylsulfonyl)pyrimidin-2-yl]-2-methyl-1H-indole-4-carboxamide]
- pIC50 [1, 4]: > 7.00
- pIC50 [2, 5]: > 5.52
- pIC50 [3, 6]: > 5.52

Structure (SMILES): CC(=O)NCc1cnc(-n2c(C)cc3c(C(N)=O)cccc32)nc1NCc1ccccc1 [Example 24, 1-[4-(benzylamino)-5-(acetamidomethyl)pyrimidin-2-yl]-2-methyl-1H-indole-4-carboxamide]
- pIC50 [1, 4]: > 6.52
- pIC50 [2, 5]: > 5.00
- pIC50 [3, 6]: > 5.00

Structure (SMILES): Cc1cc2c(C(N)=O)cccc2n1-c1ncc(OC(C)C)c(NCc2ccccc2)n1 [Example 26, 1-[4-(benzylamino)-5-(propan-2-yloxy)pyrimidin-2-yl]-2-methyl-1H-indole-4-carboxamide]
- pIC50 [1, 4]: > 7.00
- pIC50 [2, 5]: > 5.52
- pIC50 [3, 6]: > 5.52

Structure (SMILES): CCOc1cnc(-n2c(C)cc3c(C(N)=O)cccc32)nc1NCc1ccccc1 [Example 27, 1-[4-(benzylamino)-5-ethoxypyrimidin-2-yl]-2-methyl-1H-indole-4-carboxamide]
- pIC50 [1, 4]: > 7.52
- pIC50 [2, 5]: > 5.52
- pIC50 [3, 6]: > 5.52

Structure (SMILES): COCCOc1cnc(-n2c(C)cc3c(C(N)=O)cccc32)nc1NCc1ccccc1 [Example 28, 1-[4-(benzylamino)-5-(2-methoxyethoxy)pyrimidin-2-yl]-2-methyl-1H-indole-4-carboxamide]
- pIC50 [1, 4]: > 7.00
- pIC50 [2, 5]: > 5.00
- pIC50 [3, 6]: > 5.52

Structure (SMILES): COc1cnc(-n2c(CN)cc3c(C(N)=O)cccc32)nc1NCc1ccccc1 [Example 29, 2-(aminomethyl)-1-(4-(benzylamino)-5-methoxypyrimidin-2-yl)-1H-indole-4-carboxamide]
- pIC50 [1, 4]: > 7.00
- pIC50 [2, 5]: > 5.52
- pIC50 [3, 6]: > 6.00

Structure (SMILES): CC(C)c1cnc(-n2c(CN)cc3c(C(N)=O)cccc32)nc1NCc1ccccc1 [Example 30, 2-(aminomethyl)-1-[4-(benzylamino)-5-(propan-2-yl)pyrimidin-2-yl]-1H-indole-4-carboxamide]
- pIC50 [1, 4]: > 7.00
- pIC50 [2, 5]: > 5.52
- pIC50 [3, 6]: > 5.52

Structure (SMILES): COc1nc(-n2c(C)cc3c(C(N)=O)cccc32)nc(NCc2ccccc2)c1C [Example 33, 1-(4-(benzylamino)-6-methoxy-5-methylpyrimidin-2-yl)-2-methyl-1H-indole-4-carboxamide]
- pIC50 [1, 4]: > 7.52
- pIC50 [2, 5]: > 5.00
- pIC50 [3, 6]: > 5.52

Structure (SMILES): Cc1cc2c(C(N)=O)cccc2n1-c1ncc(C(C)O)c(NCc2ccccc2)n1 (stereo not drawn) [Example 34, 1-[4-(benzylamino)-5-(1-hydroxyethyl)pyrimidin-2-yl]-2-methyl-1H-indole-4-carboxamide]
- pIC50 [1, 4]: > 7.52
- pIC50 [2, 5]: > 5.52
- pIC50 [3, 6]: > 5.52

Structure (SMILES): Cc1cc2c(C(N)=O)cccc2n1-c1ncc(C(C)N)c(NCc2ccccc2)n1 (stereo not drawn) [Example 35, 1-[5-(1-aminoethyl)-4-(benzylamino)pyrimidin-2-yl]-2-methyl-1H-indole-4-carboxamide]
- pIC50 [1, 4]: > 7.00
- pIC50 [2, 5]: > 5.00
- pIC50 [3, 6]: > 5.00

Structure (SMILES): CNCc1nc(-n2c(C)cc3c(C(N)=O)cccc32)nc(NCc2ccccc2)c1C [Example 36, 1-[4-(benzylamino)-5-methyl-6-[(methylamino)methyl]pyrimidin-2-yl]-2-methyl-1H-indole-4-carboxamide]
- pIC50 [1, 4]: > 7.00
- pIC50 [2, 5]: > 5.00
- pIC50 [3, 6]: > 5.00

Structure (SMILES): COc1cnc(-n2c(C)cc3c(CN)cccc32)nc1NCc1ccccc1 [Example 37, 2-[4-(aminomethyl)-2-methyl-1H-indol-1-yl]-N-benzyl-5-methoxypyrimidin-4-amine]
- pIC50 [1, 4]: > 6.00
- pIC50 [2, 5]: > 5.00
- pIC50 [3, 6]: > 5.52
